Like-named read-outs stand apart in the source and are kept apart here.
Tests used:
HepG2 cells [1] = conditions: HepG2 cells, single number from one experiment; for IC50: read-out: MMP assays IC50 (µM) HepG2
HepG2 cells [2] = conditions: cited from earlier work
rat primary hepatocytes = assay: MMP assay in rat primary hepatocytes; conditions: rat hepatocytes, mean ± SD of three experiments; for IC50: read-out: MMP assays IC50 (µM) Rat Hepatocytes
[3] = read-out: MMP assays IC50 (µM) qHTS-HepG2
[4] = read-out: MMP assays IC50 (µM), qHTS-HepG2

| SMILES | MMP assays efficacy (%) HepG2 (HepG2 cells [1]) | IC50 (HepG2 cells [1]) | MMP assays efficacy (%) qHTS-HepG2 (HepG2 cells [2]) | IC50 (HepG2 cells [2]; [3]) | MMP assays IC50 (µM) Rat Hepatocytes (rat primary hepatocytes) | MMP assays efficacy (%) Rat Hepatocytes (rat primary hepatocytes) | IC50 (rat primary hepatocytes) | IC50 (HepG2 cells [2]; [4]) | MMP assays IC50 (µM) HepG2 (HepG2 cells [1]) | MMP assays IC50 (µM) qHTS-HepG2 (HepG2 cells [2]) |
| --- | --- | --- | --- | --- | --- | --- | --- | --- | --- | --- |
| Cc1ccc2oc(CN(Cc3ccccc3)C(=O)Nc3c(F)cc(F)cc3F)c(-c3ccc(Cl)cc3)c2c1 | -66% | 56.2 µM | -59±30% | 21 ± 2.43 µM | inactive | inactive |  |  |  |  |
| Cc1cc(C(C)(C)C)c(O)c(C)c1Cn1c(=O)n(Cc2c(C)cc(C(C)(C)C)c(O)c2C)c(=O)n(Cc2c(C)cc(C(C)(C)C)c(O)c2C)c1=O | -82% | 44.7 µM | -98±4% | 12.2 ± 2.84 µM |  | -40±24% | 26.8 ± 25.3 µM |  |  |  |
| O=C(OCC(COC(=O)c1ccccc1)(COC(=O)c1ccccc1)COC(=O)c1ccccc1)c1ccccc1 | -52% | 7.08 µM | -63±21% | 4.32 ± 8.63 µM | inactive | inactive |  |  |  |  |
| Cc1cc(Nc2ccc(O)cc2)ccc1N | -101% | 14.1 µM | -93±15% | 7.66 ± 0.88 µM | inactive | inactive |  |  |  |  |
| Cc1cc2c(cc1C(F)(F)F)N(C(=O)Nc1ccc(Oc3cccnc3C)nc1)CC2.Cl | -104% | 2 µM | -159±11% | 14.4 ± 5.99 µM |  | -98±10% | 6.15 ± 3.62 µM |  |  |  |
| CCCCCCCCCCCCCC[N+](C)(C)Cc1ccccc1.O.O.[Cl-] | -114% | 13.8 µM | -76±17% | 16.4 ± 4.28 µM | inactive | inactive |  |  |  |  |
| CC(C)(c1cc(Br)c(OCCO)c(Br)c1)c1cc(Br)c(OCCO)c(Br)c1 | -99% | 11 µM | -97±15% | 6.21 ± 0.42 µM |  | -88±17% | 32.8 ± 2.67 µM |  |  |  |
| CCOc1ccc2[nH]cc(C(=O)NCc3ccccc3)c(=O)c2n1 | -92% | 15.8 µM | -88±7% |  |  | -80±31% | 24 ± 16.6 µM | 14.8 ± 9.66 µM |  |  |
| CCCC(c1cc(C(C)(C)C)c(O)cc1C)c1cc(C(C)(C)C)c(O)cc1C | -100% | 7.08 µM | -106±11% |  |  | -61±15% | 21.1 ± 18.2 µM | 5.51 ± 1.58 µM |  |  |
| CCCCCCCCCCCCCC[P+](CCCCCC)(CCCCCC)CCCCCC.N#C[N-]C#N | -94% | 0.89 µM | -103±9% |  |  | -81±9% | 31 ± 11.7 µM | 0.39 ± 0.19 µM |  |  |
| CCc1cc(SCc2sc(-c3ccc(C(F)(F)F)cc3)nc2CN2CCN(c3ccc(OC)cc3)CC2)ccc1OCC(=O)O | -105% | 31.6 µM | -128±5% | 25.3 ± 5.81 µM |  | -116±28% | 23.1 ± 15.6 µM |  |  |  |
| O=C(c1ccccc1)c1cc(Cl)ccc1O | -98% | 39.8 µM | -85±12% | 29.1 ± 3.36 µM |  | -59±21% | 25.4 ± 21.3 µM |  |  |  |
| CC[C@H](NC(=O)c1cc(F)ccc1[N-]S(=O)(=O)c1cccc2cccnc12)c1ccccc1.[Na+] | -98% | 11.2 µM | -101±14% |  |  | -84±50% | 35.9 ± 20.2 µM | 4.42 ± 6.97 µM |  |  |
| COC(=O)C1=C(C)NC(C)=C(C(=O)O[C@@H]2CCCN(Cc3ccccc3)C2)[C@@H]1c1cccc([N+](=O)[O-])c1.Cl (racemic) [rac Benidipine hydrochloride] | -89% | 30.8 µM | -93±18% |  | inactive | inactive |  | 15 ± 3.18 µM |  |  |
| N=C1NC(=N)c2cc3ccccc3cc21 [1,3-Diiminobenz(f)isoindoline] | -95% | 35.5 µM | -82±11% | 11.1 ± 7.81 µM |  | -68±18% | 26.7 ± 23.6 µM |  |  |  |
| CCCCCCCCCCn1cc[n+](C)c1.F[B-](F)(F)F [1-Decyl-3-methylimidazolium tetrafluoroborate] | -104% | 7.08 µM | -68±12% | 3.87 µM |  | -100±10% | 16.8 ± 7.73 µM |  |  |  |
| CCCCCCCCCCn1cc[n+](C)c1.O=S(=O)([O-])C(F)(F)F [1-Decyl-3-methylimidazolium trifluoromethanesulfonate] | -99% | 7.08 µM | -57±16% | 1.67 ± 2.71 µM |  | -125±47% | 12.1 ± 3.97 µM |  |  |  |
| O=C=Nc1cccc(C(F)(F)F)c1 [1-Isocyanato-3-(trifluoromethyl)benzene] | -108% | 6.31 µM | -119±7% | 3.28 ± 1.13 µM |  | -107±13% | 11.5 ± 3.69 µM |  |  |  |
| CCCCCCCC[n+]1ccn(C)c1.F[B-](F)(F)F [1-Methyl-3-octylimidazolium tetrafluoroborate] | -115% | 19.9 µM | -73±29% | 5.66 ± 5.82 µM |  | -76±29% | 43.4 ± 7.4 µM |  |  |  |
| CCCCCCCC[n+]1ccn(C)c1.O=S(=O)([O-])C(F)(F)F [1-Methyl-3-octylimidazolium trifluoromethanesulfonate] | -84% | 15.8 µM | -58±19% | 8.38 ± 4.29 µM |  | -82±36% | 31.6 µM |  |  |  |
| O=C(c1ccc(O)c(O)c1)c1ccc(O)cc1O [2,3',4,4'-Tetrahydroxybenzophenone] |  | 8.91 µM | -89±13% | 7.39 ± 7.14 µM |  | -69±32% | 40.4 ± 8.45 µM |  |  |  |
| Cl.Cl.Nc1ccc(O)c(N)c1 [2,4-Diaminophenol dihydrochloride] | inactive |  | -58±5% | 3.77 ± 1.06 µM | inactive | inactive |  |  | inactive |  |
| COc1cc(Cl)ccc1Cl [2,5-Dichloroanisole] | inactive |  | inactive |  | inactive | inactive |  |  | inactive | inactive |
| Oc1ccc(Cc2ccccc2O)cc1 [2-(4-Hydroxybenzyl)phenol] | -87% | 35.5 µM | -89±11% | 27.5 ± 1.92 µM | inactive | inactive |  |  |  |  |

— PMC6112376, “Comprehensive Analyses and Prioritization of Tox21 10K Chemicals Affecting Mitochondrial Function by in-Depth Mechanistic Studies” (Environmental Health Perspectives, 2018)
